The text below walks through data of patent US20230013419A1, “ANALOGUES OF 3-(5-METHYL-1,3-THIAZOL-2-YL)-N-{(1R)-1-[2-(TRIFLUORO-METHYL)PYRIMIDIN-5-YL]ETHYL}BENZAMIDE” (Bayer Aktiengesellschaft, priority 2019, published 2023).

pIC50: −log10 of the molar value. Converted amounts (≈) assume the structure as drawn. “And” between values parts separate entries of the source, which are not always exact repeats. Equal values may be shown once.

One series has as its target T1, human P2X3 receptor (Homo sapiens, UniProt P56373).
T1 construct: expressed in transfected cells; host or cells: CHO (Chinese hamster ovary) cells, stably co-transfected with mitochondrial photina
T1 sequence (P56373 1-397): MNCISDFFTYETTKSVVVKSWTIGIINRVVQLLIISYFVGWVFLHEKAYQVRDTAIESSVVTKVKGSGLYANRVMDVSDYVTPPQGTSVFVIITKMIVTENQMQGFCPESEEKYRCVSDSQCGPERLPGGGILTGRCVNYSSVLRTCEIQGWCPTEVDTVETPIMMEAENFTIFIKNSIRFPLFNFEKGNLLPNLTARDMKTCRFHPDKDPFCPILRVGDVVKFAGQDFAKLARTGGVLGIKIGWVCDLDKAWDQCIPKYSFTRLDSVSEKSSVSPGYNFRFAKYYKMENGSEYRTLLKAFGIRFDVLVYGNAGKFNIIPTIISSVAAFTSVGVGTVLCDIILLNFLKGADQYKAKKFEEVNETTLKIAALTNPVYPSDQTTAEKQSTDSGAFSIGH
Description: Cellular in vitro assay for determination of P2X3 receptor activity (CHO cells, photina luminescence, agonist alpha-beta-methylene-ATP). The format is cell-based. The settings on record: antagonist activity at human P2X3 receptors, recombinant CHO cells, alpha-beta-methylene-ATP at EC50; read-out: Target IC50. How it is done:
Cellular In Vitro Assay for Determination of P2X3 Receptor Activity
The determination of antagonistic activity at the P2X3 receptor of the compounds of the invention was performed by use of a recombinant cell line. These cell line derives originally from the Chinese hamster ovary (CHO) cell line (Tjio J. H.; Puck T. T., 1958, J. Exp. Med. 108: 259-271). The cell line is stably transfected with the human P2X3 receptor and a calcium-sensitive photoprotein, mitochondrial photina, which, after reconstitution with the cofactor coelenterazine, emits light in dependence of calcium binding [Bovolenta S, Foti M, Lohmer S, Corazza S., J Biomol Screen. 2007 August; 12(5):694-704]. The strength of the photina luminescence signal corresponds to the level of receptor activation upon agonist binding. An inhibitor would decrease the signal depending on its potency and concentration. Bioluminescence was detected using a suitable luminometer [Milligan G, Marshall F, Rees S, Trends in Pharmacological Sciences 17, 235-237 (1996)].
On the day before the assay, the cells are plated out in culture medium (DMEM/F12 (PAN, P04-41451), 10% FCS) in 384-well microtiter plates and kept in a cell incubator (96% humidity, 5% v/v CO2, […]). On the day of the assay medium is replaced by 2 mM Ca-tyrode buffer (20 mM HEPES, 130 mM NaCl, 5 mM KCl, 5 mM NaHCO3, 2 mM MgCl2, pH 7.4) containing 5 μg/ml coelenterazine. Plates are incubated for 3 hours at 37° C. (96% humidity, 5% v/v CO2). After incubation the test substances in various concentrations are placed for 10 minutes in the wells of the microtiter plate before the agonist alpha-beta-methylene-ATP at EC50 concentration is added. The resulting light signal is measured immediately in the luminometer.
The examples were tested in quadruples per plate and mean values were used to determine IC50 values at the human P2X3 receptors and percentage of maximal inhibition.

Series [1] is described as follows: In vitro metabolic stability in human liver microsomes. In kind it is in vitro ADME. The conditions noted are these: for CLblood: hepatic in vivo blood clearance calculated from half-life in human liver microsomes, 1 μM, well-stirred model; for metabolic stability compared to example 11 of WO2016/091776 A1: human liver microsomes; for Fmax: maximal oral bioavailability calculated from human liver microsome clearance. How it is done: Examples were tested for its metabolic stability in human liver microsomes. Examples were measured one or more times. When measured more than once, data from metabolic stability assays represent average values or median values calculated utilizing data sets obtained from testing of one or more synthetic batch.
In vitro metabolic stability was determined by incubating a solution of test compounds in dimethylsulfoxide (DMSO) and acetonitrile at 1 μM in a suspension of liver microsomes in 100 mM phosphate buffer, pH7.4 (NaH2PO4×H2O+Na2HPO4×2H2O) and at a protein concentration of 0.5 mg/mL at 37° C. The microsomes were activated by adding a co-factor mix containing 8 mM Glucose-6-Phosphat, 4 mM MgCl2; 0.5 mM NADP and 1 IU/ml G-6-P-Dehydrogenase in phosphate buffer, pH 7.4. The metabolic assay was started shortly afterwards by adding the test compound to the incubation at a final volume of 1 mL. Organic solvent was limited to ≤0.01% dimethylsulfoxide (DMSO) and ≤1% acetonitril. During incubation, the microsomal suspensions were continuously shaken at 580 rpm and aliquots were taken at 2, 8, 16, 30, 45 and 60 min, to which equal volumes of cold methanol were immediately added. Samples were frozen at −20° C. over night, subsequently centrifuged for 15 minutes at 3000 rpm and the supernatant was analyzed with an Agilent 1200 HPLC-system with LCMS/MS detection.
The half-life of a test compound was determined from the concentration-time plot. From the half-life the intrinsic clearances were calculated. Together with the additional parameters liver blood flow, specific liver weight and microsomal protein content the hepatic in vivo blood clearance (CL) and the maximal oral bioavailability (Fmax) were calculated for the different species. The hepatic in vivo blood clearance (CLblood) and the maximal oral bioavailability (Fmax) was calculated using the following formulae: CL′intrinsic [ml/(min*kg)]=kel [1/min]/((mg protein/volume of incubation [ml])*fu,inc)*(mg protein/liver weight [g])*(specific liver weight [g liver/kg body weight]); CLblood well-stirred [L/(h*kg)]=(QH [L/(h*kg)]*fu,blood*CL′intrinsic [L/(h*kg)])/(QH [L/(h*kg)]+fu,blood*CL′intrinsic [L/(h*kg)]); Fmax=1−CLblood/QH and using the following parameter values: QH (Liver blood flow): 1.32 L/h/kg (human), 2.1 L/h/kg (dog), 4.2 L/h/kg (rat); specific liver weight: 21 g/kg (human), 39 g/kg (dog), 32 g/kg (rat); microsomal protein content: 40 mg/g. fu,inc and fu,blood is taken as 1 with fu,inc being the unbound fraction (ie the non-protein bound fraction) in the incubation experiment, and fu,blood being the unbound fraction in blood.

Series [2] can be described thus: High throughput aqueous solubility in phosphate buffer pH 6.5. The format is physicochemical. The settings on record: for solubility at 24 h: aqueous buffer, kinetic from dmso stock, phosphate buffer pH 6.5, 1% DMSO, 24 hrs at room temperature; for solubility compared to example 11 of WO2016/091776 A1: aqueous, pH 6.5. On the procedure: Examples were tested for its solubility in aqueous media (pH 6.5). Examples were synthesized one or more times in accordance with the above-described protocols. When synthesized more than once, data from solubility assays represent average values or median values calculated utilizing data sets obtained from testing of one or more synthetic batch.
The high throughput screening method to determine aqueous drug solubility is based on Thomas Onofrey and Greg Kazan, Performance and correlation of a 96-well high throughput screening method to determine aqueous drug solubility, Millipore Corporation Application Note, 2003; Lit. No. AN1731EN00.
The assay was run in a 96-well plate format. Each well was filled with an individual compound.
All pipetting steps were performed using a robot platform.
100 μl of a 10 mmolar solution of drug in DMSO were concentrated by vacuum centrifugation and resolved in 10 μl DMSO. 990 μl phosphate buffer pH 6.5 were added. The content of DMSO amounts to 1%. The multititer plate was put on a shaker and mixed for 24 hrs at room temperature. 150 μl of the suspension were transferred to a filtration plate. […] A second microtiter plate with 20 μl of a 10 mM solution of drug in DMSO served for calibration. Two concentrations ([…]) were prepared by dilution in DMSO/water 1:1 and used for calibration. Filtrate and calibration plates were quantified by HPLC-MS/MS.
Chromatographic conditions were as follows:
HPLC column: Ascentis Express C18 4.6×30 mm 2.7 μm
Mobile phase: A: Water/0.05% HCOOH • B: Acetonitrile/0.05% HCOOH • 0 min→95% A 5% B • 0.75 min→5% A 95% B • 2.75 min→5% A 95% B • 2.76 min→95% A 5% B • 3 min→95% A 5% B
The areas of sample- and calibration injections were determined by using mass spectrometry software (AB SCIEX: Discovery Quant 2.1.3. and Analyst 1.6.1). The solubility value was obtained by interpolation from the calibration curve.

As to `Cc1cnc(-c2cc(O[C@@H](CO)CCO)cc(C(=O)N[C@H](C)c3cnc(C(F)(F)F)nc3)c2)s1` [Example 2, 3-{[(2R)-1,4-dihydroxybutan-2-yl]oxy}-5-(5-methyl-1,3-thiazol-2-yl)-N-{(1R)-1-[2-(trifluoromethyl)pyrimidin-5-yl]ethyl}benzamide], the negative-log IC50 (pIC50) at human P2X3 receptor is 8.29. For the same compound, in series [1], the CLblood is 0.017 mL/min/kg, the “metabolic stability compared to example 11 of WO2016/091776 A1” value is reported as “significantly improved metabolic stability” and the Fmax is reported as 100%. In series [2], the solubility at 24 h stood at 96.5 µg/mL (≈ 194 µM) and the “solubility compared to example 11 of WO2016/091776 A1” value is reported as “significantly improved solubility”.

As for `Cc1cnc(-c2cc(O[C@@H](CO)CC(=O)O)cc(C(=O)N[C@H](C)c3cnc(C(F)(F)F)nc3)c2)s1` [Example 3, (3R)-4-hydroxy-3-[3-(5-methyl-1,3-thiazol-2-yl)-5-({(1R)-1-[2-(trifluoromethyl)-pyrimidin-5-yl]ethyl}carbamoyl)phenoxy]butanoic acid], the pIC50 at human P2X3 receptor is 7.92. For the same compound, in series [1], the CLblood is 0.017 mL/min/kg, the “metabolic stability compared to example 11 of WO2016/091776 A1” value is on record as “significantly improved metabolic stability” and the Fmax was 100%. In series [2], the solubility at 24 h was determined as 1190 µg/mL (≈ 2330 µM) and the “solubility compared to example 11 of WO2016/091776 A1” value is given as “significantly improved solubility”.

For the compound `Cc1cnc(-c2cc(O[C@@H]3CCOC3)cc(C(=O)N[C@H](C)c3cnc(C(F)(F)F)nc3)c2)s1` [example 11 of WO2016/091776 A1, 3-(5-Methyl-1,3-thiazol-2-yl)-5-[(3R)-tetrahydrofuran-3-yloxy]-N-{(1R)-1-[2-(trifluoro-methyl)pyrimidin-5-yl]ethyl}benzamide, reference compound], in series [1], the CLblood is 8.67 mL/min/kg and 4.5 mL/min/kg; the Fmax is 61% and 79%. Also, the solubility at 24 h in series [2] was found to be 2.9 µg/mL (≈ 6.06 µM).

Regarding “{[(3R,5R)-5-Hydroxytetrahydrofuran-3-yl]oxy}-5-(5-methyl-1,3-thiazol-2-yl)-N-{(1R)-1-[2-(trifluoromethyl)pyrimidin-5-yl]ethyl}benzamide and {[(3R,5S)-5-hydroxytetrahydrofuran-3-yl]oxy}-5-(5-methyl-1,3-thiazol-2-yl)-N-{(1R)-1-[2-(trifluoromethyl)pyrimidin-5-yl]ethyl}benzamide [Example 1]”, the negative-log IC50 (pIC50) on human P2X3 receptor was 7.70. For the same compound, in series [1], the CLblood was 14.5 mL/min/kg and the Fmax is 34%.
